{"source": "patent US7427416B2", "about": "“Methods of treating conditions using metal-containing materials” (Nucryst Pharmaceuticals Corp., priority 2000, dated 2008)", "key": {"[1]": {"tested_on": "Pseudomonas infected lungs", "assay": "rat lung infection, histopathology of lung samples", "assay_type": "in vivo", "details": "for Consol Score / Inflam Score: 0=normal to 4 very severe", "experimental": "A solution form nanocrystalline silver coated dressings (AgHDPE) from Example 1 was prepared by sparging CO2 through 1000 ml of reverse osmosis water using commercial CO2 Soda Syphon Charger. […] At this point, approximately 333 ml of the carbonated water was decanted into a plastic bottle and 333 square inches of nanocrystalline silver-coated net was added to the water. The nanocrystalline silver-coated net and water were placed in 37° C. shaker incubator and shaken at 180 RPM for 30 minutes to elevate the pH to approximately 5.8. The solution was then transferred to a beaker and stirred vigorously for 2 minutes to raise the pH to approximately at 7.3. The dissolution solution was transferred to a commercial nebulizer which was connected to a medical air cylinder with a flow rate of approx. 20 L/min. The outflow of the nebulizer was connected to a animal chamber housing the rats to be dosed. Only the “test” rats (12 randomly assigned animals) received the dosing. The rats received two —½ hour aerosol administrations of the test solution on the day of infection. Thereafter, the test rats were dosed 3 times per day for an additional one and a half days.\nThe bacteria used for infection of these animals were Pseudomonas aeruginosa strain 5588. The dose was previously titrated to ascertain that a dose of up to 10^9 CFU was not lethal for the animals. The bacteria were grown overnight in Tryptic soy broth, washed once in sterile PBS and resuspend in sterile PBS. The final concentration of the inoculum was 4×10^9 CFU/ml.\nThe rats were anesthetized by inhalation of 2% halothane. A 400 microliter volume of bacterial suspension was intratracheally administered in the bronchi of each rat. This was performed non-surgically on intubated animals.\nHistopathology was scored (0-4) based upon the degree of consolidation and inflammation (neutrophil infiltration). The entire right middle lobes of all rats were collected for histopathology. As whole lobes were selected there was no bias toward any sample. All samples were fixed in neutral buffered formalin at the time the lung was removed from the thorax. It was fixed overnight, dehydrated and embedded in was. Sections were obtained which were hydrated and stained with haematoxylin and eosin.\nAll sections were examined by a veterinary pathologist who was blinded to the treatment groups, until after the samples were scored and comments were provided. (0=normal, 1=slight, 2 moderate, 3 severe, 4 very severe)."}, "[2]": {"tested_on": "Pseudomonas infected lungs", "assay": "rat lung infection, gross lung score", "assay_type": "in vivo", "details": "individual animals, absent=0, mild=1, moderate=2, severe=3", "experimental": "A solution form nanocrystalline silver coated dressings (AgHDPE) from Example 1 was prepared by sparging CO2 through 1000 ml of reverse osmosis water using commercial CO2 Soda Syphon Charger. […] At this point, approximately 333 ml of the carbonated water was decanted into a plastic bottle and 333 square inches of nanocrystalline silver-coated net was added to the water. The nanocrystalline silver-coated net and water were placed in 37° C. shaker incubator and shaken at 180 RPM for 30 minutes to elevate the pH to approximately 5.8. The solution was then transferred to a beaker and stirred vigorously for 2 minutes to raise the pH to approximately at 7.3. The dissolution solution was transferred to a commercial nebulizer which was connected to a medical air cylinder with a flow rate of approx. 20 L/min. The outflow of the nebulizer was connected to a animal chamber housing the rats to be dosed. Only the “test” rats (12 randomly assigned animals) received the dosing. The rats received two —½ hour aerosol administrations of the test solution on the day of infection. […]\nOn each day, six rats of each group of animals were sacrificed. […] Lungs were grossly scored (absent=0, mild=1, moderate=2, and severe=3) based on the degree and involvement of consolidation, hemorrhage, edema and necrosis based upon gross observation."}, "[3]": {"tested_on": "Staphylococcus aureus", "assay": "aerosol of silver solutions on streaked agar plates", "assay_type": "cell-based", "set-up": "key to Growth at 16 h (0−++++) / Growth at 48 h (0−++++): (0−++++); (0−++++); (0−++++); (0−++++)", "details": "for Growth at 16 h (0−++++) / Growth at 48 h (0−++++): aerosol 53 minutes", "experimental": "(§1) The solutions were in turn placed in an ultrasonic nebulizer that created small droplets containing dissolved and suspended parts of the silver solution. The output from the nebulizer was directed into a chamber made from a stainless steel frame and base. Petri dishes containing Mueller Hinton agar streaked with 4 h old cultures of Pseudomonas aeruginosa and Staphylococcus aureus, were exposed to the silver solution aerosols and the silver nitrate aerosols.\n(§2) The method used for the current tests was the mechanical method in the form of an ultrasonic nebulizer. For convenience an ultrasonic humidifier was used. The liquid containing the dissolved and suspended silver from the dressing of Example 1 was placed in the water reservoir of the humidifier. When power was applied to the humidifier aerosol droplets of dissolved and suspended silver were generated and flowed from the output nozzle.\n(§3) A test chamber was constructed using a stainless steel frame with a transparent plastic covering. The frame was placed on a stainless steel base plate. The output nozzle from the humidifier was modified so that the aerosol could be directed into the chamber at a height of approximately 30 cm from the base. The plates and other test samples were placed on the stainless steel plate and exposed to the aerosol for a prescribed length of time.\n(§4) Petri dishes, containing Mueller Hinton agar, were streaked with 4 h old cultures of Pseudomonas aeruginosa or Staphylococcus aureus. The plates were then weighed and their exposed outer surfaces were coated with Parafilm to prevent condensation from occurring on these surfaces. These plates were placed in the aerosol chamber uncovered. The ultrasonic nebulizer was then started and run for 53 minutes. The plates were then removed from the chamber, the plastic was removed and the dishes re-weighed so that the amount of moisture loss/gain could be determined.\n(§5) The plates were then placed in a 35° C. incubator for 16 h. After incubation the pattern and amount of growth was assessed on the plates for both organisms.\n(§6) Three of the six plates made for each organism were tested to determine if the antimicrobial effect was cidal or static in nature. This was accomplished by rinsing or placing a piece of the clear section of agar in the Petri dish plates into Tryptic soy broth in a test tube and incubating for 4 h or 16 h. If the medium turned turbid in 4 h it would indicate that the antimicrobial affect was bacteriostatic in nature. If the organisms took more than 16 h to grow, as indicated by turbidity, it was considered an indication that both static and cidal effects occurred. If no growth occurred the effect was bactericidal.\nas §1, with “the solution of nanocrystalline noble metal-containing material.” for “the silver solution.”, “Pseudomonas aerugiona” for “Pseudomonas aeruginosa”, “Staphylococcus aureus” for “Staphylococcus aureus,”, “to nanocrystalline noble metal” for “to the silver solution”\n(§7) The method used to create an aerosol for these tests was the mechanical method in the form of an ultrasonic nebulizer. For convenience, an ultrasonic humidifier was used. The liquid containing the dissolved and suspended antimicrobial metal-containing material with atomic disorder was placed in the water reservoir of the humidifier. When power was applied to the humidifier, aerosol droplets of dissolved and suspended antimicrobial metal-containing material with atomic disorder were generated and flowed from the output nozzle.\n(§8) A test chamber was constructed using a stainless steel frame with a transparent plastic covering. The frame was placed on a stainless steel plate."}, "[4]": {"tested_on": "Pseudomonas aeruginosa", "assay": "aerosol of silver solutions on streaked agar plates", "assay_type": "cell-based", "set-up": "key to Growth at 16 h (0−++++) / Growth at 48 h (0−++++): (0−++++); (0−++++); (0−++++); (0−++++)", "details": "for Growth at 16 h (0−++++) / Growth at 48 h (0−++++): aerosol 53 minutes; for Viable 4 h / Viable 16 h: regrowth in Tryptic soy broth", "experimental": "as §1, §2, §3, §4, §5, §6\nas §1, with “the solution of nanocrystalline noble metal-containing material.” for “the silver solution.”, “Pseudomonas aerugiona” for “Pseudomonas aeruginosa”, “Staphylococcus aureus” for “Staphylococcus aureus,”, “to nanocrystalline noble metal” for “to the silver solution”\nas §7, §8"}, "[5]": {"tested_on": "Pseudomonas aeruginosa strain 5588 infected lungs", "assay": "nebulized forms of silver in rats, gross lung score", "assay_type": "in vivo, rat", "details": "after 24 h, nebulized solutions (400 ppm; colloidal silver 20 ppm)", "procedure": "A solution was prepared by sparging CO2 through 1000 ml of reverse osmosis water using commercial CO2 Soda Syphon Charger. This process results in the pH of the water dropping to about 4. At this point, approximately 333 ml of the carbonated water was decanted into a plastic bottle and 333 square inches of nanocrystalline silver-coated net was added to the water. The nanocrystalline silver-coated net and water were placed in 37° C. shaker incubator and shaken at 180 RPM for 30 minutes to elevate the pH to approximately 5.8. The solution was then transferred to a beaker and stirred vigorously for 2 minutes to raise the pH to approximately at 7.3.\nA colloidal silver solution (20 ppm) in was obtained from a commercial source.\nThe dissolution solutions were transferred to commercial nebulizers which were connected to a Medical air cylinder with a flow rate of approx. 20 L/min. The outflows of the nebulizers were connected to an animal chamber housing the rats to be dosed. All rats (40 randomly assigned animals) received the dosing. The rats received two —½ hour aerosol administrations of the test solutions on the day of infection. […]\nAll rats of each group of animals were sacrificed after 24 h. […] Lungs were grossly scored (absent=0, mild=1, moderate=2, and severe=3) based on the degree of involvement of consolidation, hemorrhage, edema and necrosis based upon gross observation."}, "[6]": {"details": "Solutions 1 and 3: Ag 85 (dressing) / 99 (AgNO3) μg/ml"}, "[7]": {"details": "Solutions 1 and 3: Ag 85 / 99 μg/ml"}, "[8]": {"details": "Solutions 1 and 3: Ag 85 / 99 μg/ml, regrowth in Tryptic soy broth"}, "[9]": {"details": "Solutions 2 and 4: Ag 370 (dressing) / 300 (AgNO3) μg/ml"}, "[10]": {"details": "Solutions 2 and 4: Ag 370 / 300 μg/ml"}}, "note": "“And” between values parts separate entries of the source, which are not always exact repeats. Equal entries are not always repeated.", "data": [{"compound": "NC[C@H]1O[C@H](O[C@H]2[C@H](O)[C@@H](O[C@H]3O[C@H](CO)[C@@H](O)[C@H](N)[C@H]3O)[C@H](N)C[C@@H]2N)[C@H](N)C[C@@H]1O", "note": "[Tobramycin]", "values": [{"measurement": "Comments (histopathology)", "setting": "[1]; Time 24", "result": "Severe infiltration of PMNs into interstitial spaces."}, {"measurement": "Consol Score", "setting": "[1]; Time 24", "result": 3}, {"measurement": "Inflam Score", "setting": "[1]; Time 24", "result": 3}, {"measurement": "Comments (histopathology)", "setting": "[1]; Time 48", "result": "Severe infiltration of PMNs into interstitial spaces."}, {"measurement": "Involvement of sample", "setting": "[1]; Time 48", "result": "in affected areas. Involvement of 70% of sample."}, {"measurement": "Consol Score", "setting": "[1]; Time 48", "result": 3}, {"measurement": "Inflam Score", "setting": "[1]; Time 48", "result": 3}, {"measurement": "gross lung score", "setting": "[2]; 24 h", "result": "2 (3×) and 3 (2×) and 1"}, {"measurement": "gross lung score", "setting": "[2]; 48 h", "result": "1 (4×) and 2 and Dead"}]}, {"compound": "O=[N+]([O-])[O-].[Ag+]", "note": "[AgNO3, silver nitrate]", "values": [{"measurement": "Growth at 16 h (0−++++)", "setting": "[3]; [6]", "result": 0}, {"measurement": "Growth at 16 h (0−++++)", "setting": "[3]; Solutions 1 and 3: Ag 85 (dressing) / 99 (AgNO3) μg/ml, listed as AgNo3", "result": "++++"}, {"measurement": "Growth at 48 h (0−++++)", "setting": "[3]; [7]", "result": "++++"}, {"measurement": "Viable 4 h", "setting": "[3]; [8]", "result": "No"}, {"measurement": "Viable 16 h", "setting": "[3]; [8]", "result": "Yes"}, {"measurement": "Viable 4 h", "setting": "[3]; Solutions 1 and 3: Ag 85 / 99 μg/ml, regrowth in Tryptic soy broth, listed as AgNo3", "result": "Yes"}, {"measurement": "Growth at 16 h (0−++++)", "setting": "[3]; [9]", "result": 0}, {"measurement": "Growth at 48 h (0−++++)", "setting": "[3]; [10]", "result": "+++"}, {"measurement": "Viable 4 h", "setting": "[3]; Solutions 2 and 4: Ag 370 / 300 μg/ml, regrowth in Tryptic soy broth", "result": "No"}, {"measurement": "Growth at 16 h (0−++++)", "setting": "[4]; [6]", "result": 0}, {"measurement": "Growth at 48 h (0−++++)", "setting": "[4]; [7]", "result": 0}, {"measurement": "Viable 4 h", "setting": "[4]; [7]", "result": "No"}, {"measurement": "Viable 16 h", "setting": "[4]; [7]", "result": "No"}, {"measurement": "Viable 16 h", "setting": "[4]; Solutions 1 and 3: Ag 85 / 99 μg/ml, listed as AgNo3", "result": "Yes"}, {"measurement": "Growth at 16 h (0−++++)", "setting": "[4]; [9]", "result": 0}, {"measurement": "Growth at 48 h (0−++++)", "setting": "[4]; [10]", "result": 0}, {"measurement": "Viable 4 h", "setting": "[4]; [10]", "result": "No"}, {"measurement": "Viable 16 h", "setting": "[4]; [10]", "result": "No"}, {"measurement": "gross score of lungs", "setting": "[5]", "result": "moderately to severely inflamed"}]}]}
